Source: paper PMC6844396, “Design, synthesis and biological evaluation of novel 1H-1,2,4-triazole, benzothiazole and indazole-based derivatives as potent FGFR1 inhibitors viafragment-based virtual screening” (Journal of Enzyme Inhibition and Medicinal Chemistry, 2019)

How the values were obtained:
SNU-16 cell = assay: Cell proliferation assay (CCK-8 or MTT), SNU-16; type: cell-based, Human; conditions: for IC50: SNU-16 is FGFR2-amplified cell type, 72 h
Procedure: Human gastric cancer cell line SNU-16 was purchased from American Type Culture Collection (ATCC, Manssas, VA, USA). All the cell lines were routinely maintained in complete medium according to the suppliers’ recommendations.
Cells were seeded in 96-well tissue culture plates. On the day when seeding, the cells were exposed to various concentrations of compounds and further cultured for 72 h at 37 °C. Finally, cell proliferation was determined using Cell Counting Kit (CCK-8) or the thiazolyl blue tetrazolium bromide (MTT, from Sigma-Aldrich, St. Louis, MO, USA) assay. The IC50 values were calculated by concentration–response curve fitting using a SoftMax pro-based four-parameter method.

FGFR1 = FGFR1 (Homo sapiens, UniProt P11362); assay: ELISA kinase assay, FGFR1; type: biochemical; conditions: ELISA; average values from two separate experiments
Procedure: Elisa kinase assay. The effects of the indicated compounds on the activities of receptor tyrosine kinases were determined using enzyme-linked immunosorbent assays (ELISAs) with purified recombinant proteins. Briefly, 20 μg/mL poly (Glu,Tyr)4:1 (Sigma, St Louis, MO, USA) was pre-coated in 96-well plates as a substrate. A 50 μL aliquot of 10 μmol/L ATP solution diluted in kinase reaction buffer (50 mmol/L HEPES [pH 7.4], 50 mmol/L MgCl2, 0.5 mmol/L MnCl2, 0.2 mmol/L Na3VO4, and 1 mmol/L DTT) was added to each well; 1 μL of different compounds with indicated concentration diluted in 1% DMSO (v/v) (Sigma, St Louis, MO, USA) were then added to each reaction well. DMSO (1%, v/v) was used as the negative control. The kinase reaction was initiated by the addition of purified tyrosine kinase proteins (FGFR1, FGFR2, FGFR3, FGFR4, ALK, Bcr-Abl, EPH-A2, Flt-1, RET, c-Src, IGF1R, c-Met, EGFR, ErbB2) diluted in 49 μL of kinase reaction buffer solution. After incubation for 60 min at 37 °C, the plate was washed three times with phosphate-buffered saline (PBS) containing 0.1% Tween 20 (T-PBS). Anti-phosphotyrosine (PY99) antibody (100 μL; 1:500, diluted in 5 mg/mL BSA T-PBS) was then added. After a 30 min incubation at 37 °C, the plate was washed three times, and 100 μL horseradish peroxidase-conjugated goat anti-mouse IgG (1:2000, diluted in 5 mg/mL BSA T-PBS) was added. The plate was then incubated at 37 °C for 30 min and washed 3 times. A 100 μL aliquot of a solution containing 0.03% H2O2 and 2 mg/mL o-phenylenediamine in 0.1 mol/l citrate buffer (pH 5.5) was added. The reaction was terminated by the addition of 50 μL of 2 mol/l H2SO4 as the colour changed, and the plate was analysed using a multi-well spectrophotometer (SpectraMAX 190, Molecular Devices, Sunnyvale, CA, USA) at 490 nm. The inhibition rate (%) was calculated using the following equation: [1-(A490/A490 control)] × 100%. The IC50 values were calculated from the inhibition curves in two separate experiments.

Chain of FGFR1 (P11362 22-822): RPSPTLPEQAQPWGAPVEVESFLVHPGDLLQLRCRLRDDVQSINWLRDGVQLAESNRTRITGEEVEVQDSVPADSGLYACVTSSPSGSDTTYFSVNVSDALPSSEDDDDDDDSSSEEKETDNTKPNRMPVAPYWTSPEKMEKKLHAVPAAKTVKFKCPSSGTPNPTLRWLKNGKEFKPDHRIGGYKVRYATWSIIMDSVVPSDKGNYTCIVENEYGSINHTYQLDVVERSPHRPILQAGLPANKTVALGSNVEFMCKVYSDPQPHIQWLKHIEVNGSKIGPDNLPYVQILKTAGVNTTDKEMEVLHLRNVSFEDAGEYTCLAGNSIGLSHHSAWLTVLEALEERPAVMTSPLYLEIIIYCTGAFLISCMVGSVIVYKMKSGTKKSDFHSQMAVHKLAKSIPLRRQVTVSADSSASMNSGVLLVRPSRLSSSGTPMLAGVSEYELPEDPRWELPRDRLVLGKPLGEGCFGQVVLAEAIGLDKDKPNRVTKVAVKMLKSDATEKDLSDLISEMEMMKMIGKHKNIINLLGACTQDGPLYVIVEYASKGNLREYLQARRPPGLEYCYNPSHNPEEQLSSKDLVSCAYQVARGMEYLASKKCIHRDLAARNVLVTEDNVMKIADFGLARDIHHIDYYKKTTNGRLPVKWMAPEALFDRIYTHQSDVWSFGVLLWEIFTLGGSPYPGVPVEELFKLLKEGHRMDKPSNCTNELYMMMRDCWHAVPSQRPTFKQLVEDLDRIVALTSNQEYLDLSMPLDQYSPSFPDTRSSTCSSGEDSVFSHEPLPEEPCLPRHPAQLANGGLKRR

Compound	IC50 (SNU-16 cell; Homo sapiens, Table 2)	IC50 (FGFR1)	melting point	IC50 (SNU-16 cell; Homo sapiens, Table 1)	IC50 (SNU-16 cell; Table 1)	IC50 (SNU-16 cell; Homo sapiens, Table 3)	enhancement of the cellular inhibition (SNU-16 cell; 9o vs 9d, SNU-16)
CCN1CCN(c2ccc(C(=O)Nc3n[nH]c4cc(-c5cccc(C(=O)OC)c5)ccc34)cc2)CC1 [9h, methyl 3–(3-(4–(4-ethylpiperazin-1-yl)benzamido)-1H-indazol-6-yl)benzoate]	757 nM	77.7 nM	228.7 to 233.4 °C	–	–	–	–
CCN1CCN(c2ccc(C(=O)Nc3n[nH]c4cc(-c5cc(C(F)(F)F)cc(C(F)(F)F)c5)ccc34)cc2)CC1 [9j, N-(6–(3,5-bis(trifluoromethyl)phenyl)-1H-indazol-3-yl)-4–(4-ethylpiperazin-1-yl)benzamide]	> 5000 nM	> 1000 nM	–	–	–	–	–
COc1cccc(-c2ccc3c(NC(=O)c4ccc(N5CCN(C)CC5)cc4)n[nH]c3c2)c1 [9c, N-(6–(3-methoxyphenyl)-1H-indazol-3-yl)-4–(4-methylpiperazin-1-yl)benzamide]	–	28.2 nM	224.8 to 227.4 °C	843 nM	–	–	–
CCN1CCN(c2ccc(C(=O)Nc3n[nH]c4cc(-c5cccc(OC(C)C)c5)ccc34)cc2)CC1 [9f, 4–(4-ethylpiperazin-1-yl)-N-(6–(3-isopropoxyphenyl)-1H-indazol-3-yl)benzamide]	1500 nM	9.8 nM	227.9 to 231.7 °C	–	–	–	–
CCN1CCN(c2ccc(C(=O)Nc3n[nH]c4cc(-c5cc(Cl)ccc5Cl)ccc34)cc2)CC1 [9l, N-(6–(2,5-dichlorophenyl)-1H-indazol-3-yl)-4–(4-ethylpiperazin-1-yl)benzamide]	780 nM	50.6 nM	231.5 to 234.6 °C	–	–	–	–
COc1cccc(-c2ccc3c(NC(=O)c4ccc(N5C[C@@H](C)N[C@@H](C)C5)cc4)n[nH]c3c2)c1 [9b, 4-((3R,5S)-3,5-dimethylpiperazin-1-yl)-N-(6–(3-methoxyphenyl)-1H-indazol-3-yl)benzamide]	–	20.7 nM	224.8 to 227.4 °C	1050 nM	–	–	–
CCN1CCN(c2ccc(C(=O)Nc3n[nH]c4cc(-c5cc(Cl)cc(Cl)c5)ccc34)cc2)CC1 [9k, N-(6–(3,5-dichlorophenyl)-1H-indazol-3-yl)-4–(4-ethylpiperazin-1-yl)benzamide]	1200 nM	67.2 nM	226.4 to 228.7 °C	–	–	–	–
CCN1CCN(c2ccc(C(=O)Nc3n[nH]c4cc(-c5ccc(C#N)cc5)ccc34)cc2)CC1 [9s, N-(6–(4-cyanophenyl)-1H-indazol-3-yl)-4–(4-ethylpiperazin-1-yl)benzamide]	> 5000 nM	> 1000 nM	226.4 to 230 °C	–	–	–	–
N-(5–(3-methoxyphenethyl)-1H-1,2,4-triazol-3-yl)-4–(4-methylpiperazin-1-yl) benzamide [18b]	–	> 1000 nM	–	–	> 5000 nM	–	–
COc1cc(F)cc(-c2ccc3c(NC(=O)c4ccc(N5C[C@@H](C)N[C@@H](C)C5)cc4)n[nH]c3c2)c1 [9v, 4-((3R,5S)-3,5-dimethylpiperazin-1-yl)-N-(6–(3-fluoro-5-methoxyphenyl)-1H-indazol-3-yl)benzamide]	–	13.2 nM	229.6 to 233.4 °C	–	–	437 nM	–
COc1cccc(-c2ccc3nc(NC(=O)c4ccc(N5CCN(C)CC5)cc4)sc3c2)c1F [12d, N-(6–(2-fluoro-3-methoxyphenyl)benzo[d]thiazol-2-yl)-4–(4-methylpiperazin-1-yl)benzamide]	–	> 1000 nM	232.5 to 235.2 °C	> 5000 nM	–	–	–
CCN1CCN(c2ccc(C(=O)Nc3n[nH]c4cc(-c5ccc(C(F)(F)F)cc5Cl)ccc34)cc2)CC1 [9p, N-(6–(2-chloro-4-(trifluoromethyl)phenyl)-1H-indazol-3-yl)-4–(4-ethylpiperazin-1-yl)benzamide]	> 5000 nM	> 1000 nM	227.9 to 232 °C	–	–	–	–
CCN1CCN(c2ccc(C(=O)Nc3n[nH]c4cc(-c5ccn(C)n5)ccc34)cc2)CC1 [9t, 4–(4-ethylpiperazin-1-yl)-N-(6–(1-methyl-1H-pyrazol-3-yl)-1H-indazol-3-yl) benzamide]	> 5000 nM	> 1000 nM	221.6 to 224.2 °C	–	–	–	–
CCN1CCN(c2ccc(C(=O)Nc3n[nH]c4cc(-c5cc(F)cc(OC)c5)ccc34)cc2)CC1 [9o, 4–(4-ethylpiperazin-1-yl)-N-(6–(3-fluoro-5-methoxyphenyl)-1H-indazol-3-yl)benzamide]	572 nM	5.5 nM	225.5 to 227 °C	–	–	–	1.4 fold
COc1cc(F)cc(-c2ccc3c(NC(=O)c4ccc(N5CCN(C)CC5)cc4)n[nH]c3c2)c1 [9y, N-(6–(3-fluoro-5-methoxyphenyl)-1H-indazol-3-yl)-4–(4-methylpiperazin-1-yl)benzamide]	–	10.2 nM	237.4 to 241.6 °C	–	–	639 nM	–
CCN1CCN(c2ccc(C(=O)Nc3n[nH]c4cc(-c5ccccc5OC(F)(F)F)ccc34)cc2)CC1 [9r, 4–(4-ethylpiperazin-1-yl)-N-(6–(2-(trifluoromethoxy)phenyl)-1H-indazol-3-yl)benzamide]	> 5000 nM	> 1000 nM	230.9 to 233.5 °C	–	–	–	–
COc1cc(-c2ccc3nc(NC(=O)c4ccc(N5CCN(C)CC5)cc4)sc3c2)cc(OC)c1OC [12c, 4–(4-methylpiperazin-1-yl)-N-(6–(3,4,5-trimethoxyphenyl)benzo[d]thiazol-2-yl)benzamide]	–	> 1000 nM	236.4 to 238.3 °C	> 5000 nM	–	–	–
CCN1CCN(c2ccc(C(=O)Nc3n[nH]c4cc(-c5cccc(OC)c5)ccc34)cc2)CC1 [9d, 4–(4-ethylpiperazin-1-yl)-N-(6–(3-methoxyphenyl)-1H-indazol-3-yl)benzamide]	–	15 nM	–	786 nM	–	–	–
COc1cc(OC)cc(-c2ccc3nc(NC(=O)c4ccc(N5CCN(C)CC5)cc4)sc3c2)c1 [12b, N-(6–(3,5-dimethoxyphenyl)benzo[d]thiazol-2-yl)-4–(4-methylpiperazin-1-yl) benzamide]	–	> 1000 nM	234.6 to 238.2 °C	> 5000 nM	–	–	–
COc1cc(F)cc(-c2ccc3c(NC(=O)c4cnc(N5CCN(C)CC5)cn4)n[nH]c3c2)c1 [9z, N-(6–(3-fluoro-5-methoxyphenyl)-1H-indazol-3-yl)-5–(4-methylpiperazin-1-yl)pyrazine-2-carboxamide]	–	4.6 nM	237.7 to 240.3 °C	–	–	738 nM	–
COc1cc(CCc2nc(NC(=O)c3ccc(N4CCN(C)CC4)cc3)n[nH]2)cc(OC)c1 [18c, N-(5–(3,5-dimethoxyphenethyl)-1H-1,2,4-triazol-3-yl)-4–(4-methylpiperazin-1-yl)benzamide]	–	> 1000 nM	220.9 to 223.3 °C	> 5000 nM	–	–	–
COc1cc(OC)cc(-c2ccc3c(NC(=O)c4ccc(N5C[C@@H](C)N[C@@H](C)C5)cc4)n[nH]c3c2)c1 [9a, N-(6–(3,5-dimethoxyphenyl)-1H-indazol-3-yl)-4-((3R,5S)-3,5-dimethylpiperazin-1-yl)benzamide]	–	30.6 nM	–	1200 nM	–	–	–
AZD4547 [reference compound]	–	–	–	–	6.1 nM	–	–
COc1cc(F)cc(-c2ccc3c(NC(=O)c4ccc(CN5CCN(C)CC5)cc4)n[nH]c3c2)c1 [9x, N-(6–(3-fluoro-5-methoxyphenyl)-1H-indazol-3-yl)-4-((4-methylpiperazin-1-yl)methyl)benzamide]	–	> 1000 nM	240.3 to 242.5 °C	–	–	> 5000 nM	–
CCOc1cccc(-c2ccc3c(NC(=O)c4ccc(N5CCN(CC)CC5)cc4)n[nH]c3c2)c1 [9e, N-(6–(3-ethoxyphenyl)-1H-indazol-3-yl)-4–(4-ethylpiperazin-1-yl)benzamide]	1790 nM	13.2 nM	223.6 to 226 °C	–	–	–	–
CCC(C)Oc1cccc(-c2ccc3c(NC(=O)c4ccc(N5CCN(CC)CC5)cc4)n[nH]c3c2)c1 (stereo not drawn) [9g, N-(6–(3-(sec-butoxy)phenyl)-1H-indazol-3-yl)-4–(4-ethylpiperazin-1-yl)benzamide]	> 5000 nM	> 1000 nM	–	–	–	–	–
